# Source: US9174984B2, “Chemical compounds” (GlaxoSmithKline Intellectual Property (No. 2) Limited, priority 2011, dated 2015)
# Target: T1, Human DNMT3b/3L (Homo sapiens, UniProt Q9UBC3)
# T1 construct: truncated 3b (catalytic domain)
# Experiment: DNMT inhibition assay (3H-SAM filter-binding) against DNMT3b/3L
# Assay type: biochemical
# Conditions: at least one experimental run or average of several runs; Examples 1-114 and 115-120 use different protocols; read-out: IC50 against DNMT 3b/3L
# Protocol: DNMT Assays Used for Examples 1-114
# Human DNMT3b/3L was coexpressed using truncated 3b (catalytic domain) and 3L (DNA binding domain) at GSK. Human full-length DNMT1 enzyme purchased from BPS Biosciences. Poly(dIdC) DNA (Sigma) was used at 0.002 mg/mL. Tritiated SAM (Perkin Elmer) was used at 500 nM. DNA, DNMT enzyme, and inhibitors were mixed with assay buffer (20 mM Tris pH8, 5% glycerol, 1 mM EDTA, 100 μg/mL BSA, 1 mM DTT, 50 mM NaCl) and pre-incubated without SAM for 30 min. H3 SAM was then added to initiate the methylation reaction which continues at 37° C. for 1 h. Reaction mixture was then transferred to a filter plate (Millipore Multiscreen HTS DE), then washed with 50 mM H2PO4 and 95% Ethanol. Scintillation counts were measured on the Perkin Elmer Microbeta scintillation counter.
# DNMT Assays Used for Examples 115-120
# DNMT enzymes were produced by GlaxoSmithKline. Human DNMT3b/3L was coexpressed using truncated 3b (catalytic domain) and 3L (DNA binding domain). DNMT1 was human, full-length protein. 3H-SAM was purchased from Perkin Elmer. Custon DNA oligonucleotide substrates were purchased from Integrated DNA technologies.
# 28-mer DNA Oligonucleotide Duplex (for DNMT3b/3L)
# DNMT enzyme was preincubated with compound for 1 hr at RT, after which SAM and DNA were added to initiate the methylation reaction. The methylation reaction was quenched after 20 min upon the addition of >100 fold excess non-radioactive SAM. The quenched reaction mixture (80%) was transferred to a DEAE filter binding plate (Millipore Multiscreen HTS DE), washed with 3 volumes of 50 mM phosphate buffer and dried. Scintillation cocktail (MicroScint-20) was added to the plate and radioactivity (3H-DNA) was measured using a Perkin Elmer TopCount scintillation counter.
# Final reagent concentrations (prior to quench) consisted of the following:
# DNMT3b/3L (10 nM), 200 nM DNA, 200 nM 3H-SAM in 20 mM Tris (pH 8), 1 mM DTT, 1 mM EDTA, 25 mM NaCl, 1 mM CHAPS and 2% DMSO.
row,IC50 [nM],Compound
1,≤ 20000,"CC#CC(=O)Nc1cccc(CN/C(=N\C#N)NCc2ccnc3[nH]ccc23)c1 [Example 14, (E)-N-(3-((3-((1H-Pyrrolo[2,3-b]pyridin-4-yl)methyl)-2-cyanoguanidino)methyl)phenyl)but-2-ynamide]"
2,≤ 1000,"O=C(C#Cc1ccccc1)Nc1cccc(CNC(=N[N+](=O)[O-])NCc2ccnc3[nH]ccc23)c1 [Example 24, N-(3-((3-((1H-pyrrolo[2,3-b]pyridin-4-yl)methyl)-2-nitroguanidino)methyl)phenyl)-3-phenylpropiolamide]"
3,≤ 20000,"C=CC(=O)Nc1ccc(C(F)(F)F)cc1CNC(=S)NCc1ccnc2[nH]ccc12 [Example 33, N-(2-((3-((1H-pyrrolo[2,3-b]pyridin-4-yl)methyl)thioureido)methyl)-4-(trifluoromethyl)phenyl)acrylamide]"
4,≤ 20000,"O=C(CCBr)Nc1cccc(CNC(=S)NCc2ccnc3[nH]ccc23)c1 [Example 36, N-(3-((3-((1H-pyrrolo[2,3-b]pyridin-4-yl)methyl)thioureido)methyl)phenyl)-3-bromopropanamide]"
5,≤ 10000,"C=CC(=O)Nc1ccccc1CNS(=O)(=O)NCc1ccnc2[nH]ccc12 [Example 39, N-(2-(((N-((1H-pyrrolo[2,3-b]pyridin-4-yl)methyl)sulfamoyl)amino)methyl)phenyl)acrylamide]"
6,≤ 1000,"O=C(C#Cc1ccccc1)NCCCNS(=O)(=O)NCc1ccnc2[nH]ccc12 [Example 49, N-(3-((N-((1H-pyrrolo[2,3-b]pyridin-4-yl)methyl)sulfamoyl)amino)propyl)-3-phenylpropiolamide]"
7,≤ 10000,"O=C(C#Cc1ccccc1)NCCNS(=O)(=O)NCc1ccnc2[nH]ccc12 [Example 50, N-(2-((N-((1H-pyrrolo[2,3-b]pyridin-4-yl)methyl)sulfamoyl)amino)ethyl)-3-phenylpropiolamide]"
8,7100,"Nc1cccc(CNC(=O)NCc2ccnc3[nH]cc(Cl)c23)c1 [Example 52, 1-(3-aminobenzyl)-3-((3-chloro-1H-pyrrolo[2,3-b]pyridin-4-yl)methyl)urea]"
9,≤ 10000,"C=CC(=O)Nc1ccc(F)c(CNC(=S)NCc2ccnc3[nH]ccc23)c1 [Example 74, N-(3-((3-((1H-pyrrolo[2,3-b]pyridin-4-yl)methyl)thioureido)methyl)-4-fluorophenyl)acrylamide]"
10,≤ 1000,"C=CC(=O)Nc1cc(CNC(=S)NCc2ccnc3[nH]ccc23)ccc1Cl [Example 76, N-(5-((3-((1H-pyrrolo[2,3-b]pyridin-4-yl)methyl)thioureido)methyl)-2-chlorophenyl)acrylamide]"
11,≤ 1000,"CC#CC(=O)Nc1cc(Cl)ccc1CNC(=S)NCc1ccnc2[nH]ccc12 [Example 82, N-(2-((3-((1H-pyrrolo[2,3-b]pyridin-4-yl)methyl)thioureido)methyl)-5-chlorophenyl)but-2-ynamide]"
12,≤ 10000,"S=C(NCc1ccccc1-c1nccs1)NCc1ccnc2[nH]ccc12 [Example 111, 1-((1H-Pyrrolo[2,3-b]pyridin-4-yl)methyl)-3-(2-(thiazol-2-yl)benzyl)thiourea]"
13,≤ 20000,"NCC(=O)Nc1cccc(CNC(=S)NCc2ccnc3[nH]ccc23)c1 [Example 112, N-(3-((3-((1H-Pyrrolo[2,3-b]pyridin-4-yl)methyl)thioureido)methyl)phenyl)-2-aminoacetamide]"
14,≤ 1000,"S=C(NCc1ccccc1-c1cocn1)NCc1ccnc2[nH]ccc12 [Example 115, 1-((1H-pyrrolo[2,3-b]pyridin-4-yl)methyl)-3-(2-(oxazol-4-yl)benzyl)thiourea]"

# Same assay, conditions: read-out: IC50 against DNMT 3b/3L
row,Compound,IC50 [nM]
1,"O=C(C#Cc1ccccc1)Nc1cccc(CNC(=O)NCc2ccnc3[nH]ccc23)c1 [Example 1, N-(3-((3-((1H-Pyrrolo[2,3-b]pyridin-4-yl)methyl)ureido)methyl)phenyl)-3-phenylpropiolamide]",≤ 1000
2,"CC#CC(=O)Nc1cccc(CNC(=O)NCc2ccnc3[nH]ccc23)c1 [Example 3, N-(3-((3-((1H-Pyrrolo[2,3-b]pyridin-4-yl)methyl)ureido)methyl)phenyl)but-2-ynamide]",≤ 1000
3,"NCc1cccc(NC(=S)NCc2ccnc3[nH]ccc23)c1 [Example 9, 1-((1H-Pyrrolo[2,3-b]pyridin-4-yl)methyl)-3-(3-(aminomethyl)phenyl)thiourea]",≤ 20000
4,"COc1ccc(C#CC(=O)NCCNC(=S)NCc2ccnc3[nH]ccc23)cc1 [Example 11, N-(2-(3-((1H-Pyrrolo[2,3-b]pyridin-4-yl)methyl)thioureido)ethyl)-3-(4-methoxyphenyl)propiolamide]",≤ 10000
5,"N#C/N=C(\NCCNC(=O)C#Cc1ccccc1)NCc1ccnc2[nH]ccc12 [Example 15, (Z)—N-(2-(3-((1H-Pyrrolo[2,3-b]pyridin-4-yl)methyl)-2-cyanoguanidino)ethyl)-3-phenylpropiolamide]",≤ 10000
6,"O=C(C#Cc1ccccc1)NCCCNC(=O)NCc1ccnc2[nH]ccc12 [Example 17, N-(3-(3-((1H-pyrrolo[2,3-b]pyridin-4-yl)methyl)ureido)propyl)-3-phenylpropiolamide]",≤ 10000
7,"O=C(C#Cc1ccccc1)NCCCC(=O)NCc1ccnc2[nH]ccc12 [Example 18, N-((1H-pyrrolo[2,3-b]pyridin-4-yl)methyl)-4-(3-phenylpropiolamido)butanamide]",≤ 1000
8,"O=C(C#Cc1ccccc1)Nc1cccc(CCC(=O)NCc2ccnc3[nH]ccc23)c1 [Example 19, N-(3-(3-(((1H-pyrrolo[2,3-b]pyridin-4-yl)methyl)amino)-3-oxopropyl)phenyl)-3-phenylpropiolamide]",≤ 1000
9,"CN(CCNC(=O)NCc1ccnc2[nH]ccc12)C(=O)C#Cc1ccccc1 [Example 20, N-(2-(3-((1H-pyrrolo[2,3-b]pyridin-4-yl)methyl)ureido)ethyl)-N-methyl-3-phenylpropiolamide]",≤ 10000
10,"O=C(C#Cc1ccccc1)NCc1ccccc1CNC(=O)NCc1ccnc2[nH]ccc12 [Example 21, N-(2-((3-((1H-pyrrolo[2,3-b]pyridin-4-yl)methyl)ureido)methyl)benzyl)-3-phenylpropiolamide]",≤ 1000
11,"O=C(C#Cc1ccccc1)N1CCCC(CNS(=O)(=O)NCc2ccnc3[nH]ccc23)C1 (stereo not drawn) [Example 48, 1-((1H-pyrrolo[2,3-b]pyridin-4-yl)methyl)-3-((1-(3-phenylpropioloyl)piperidin-3-yl)methyl)sulfuric diamide]",≤ 1000
12,"O=C(C#Cc1ccccc1)Nc1cccc(CNC(=O)NCc2ccnc3[nH]cc(Cl)c23)c1 [Example 53, N-(3-((3-((3-chloro-1H-pyrrolo[2,3-b]pyridin-4-yl)methyl)ureido)methyl)phenyl)-3-phenylpropiolamide]",≤ 1000
13,"O=C(C#Cc1ccccc1)NCc1ccccc1CNS(=O)(=O)NCc1ccnc2[nH]ccc12 [Example 55, N-(2-(((N-((1H-pyrrolo[2,3-b]pyridin-4-yl)methyl)sulfamoyl)amino)methyl)benzyl)-3-phenylpropiolamide]",≤ 1000
14,"O=C(C#Cc1ccccc1)NCc1ccccc1CNC(=S)NCc1ccnc2[nH]ccc12 [Example 56, N-(2-((3-((1H-pyrrolo[2,3-b]pyridin-4-yl)methyl)thioureido)methyl)benzyl)-3-phenylpropiolamide]",≤ 1000
15,"O=C(NCc1ccnc2[nH]ccc12)NC1CN(C(=O)C#Cc2ccccc2)C1 [Example 57, 1-((1H-pyrrolo[2,3-b]pyridin-4-yl)methyl)-3-(1-(3-phenylpropioloyl)azetidin-3-yl)urea]",≤ 1000
16,"O=C(NCc1ccnc2[nH]ccc12)NC1CCN(C(=O)C#Cc2ccccc2)C1 (stereo not drawn) [Example 58, 1-((1H-pyrrolo[2,3-b]pyridin-4-yl)methyl)-3-(1-(3-phenylpropioloyl)pyrrolidin-3-yl)urea]",≤ 1000
17,"O=C(C#Cc1ccccc1)Nc1cccc(CNC(=O)NCc2ccnc3[nH]cc(F)c23)c1 [Example 62, N-(3-((3-((3-fluoro-1H-pyrrolo[2,3-b]pyridin-4-yl)methyl)ureido)methyl)phenyl)-3-phenylpropiolamide]",≤ 1000
18,"O=C(C#Cc1ccccc1)Nc1cccc(CNC(=O)NCc2ccnc3[nH]cc(Br)c23)c1 [Example 63, N-(3-((3-((3-bromo-1H-pyrrolo[2,3-b]pyridin-4-yl)methyl)ureido)methyl)phenyl)-3-phenylpropiolamide]",≤ 1000
19,"O=C(NCc1ccnc2[nH]cc(Cl)c12)NC1CCN(C(=O)C#Cc2ccccc2)C1 (stereo not drawn) [Example 64, 1-((3-chloro-1H-pyrrolo[2,3-b]pyridin-4-yl)methyl)-3-(1-(3-phenylpropioloyl)pyrrolidin-3-yl)urea]",≤ 10000
